This note sets out measurements from ChEMBL document CHEMBL1949654, “Discovery of a Potent Pyrazolopyridine Series of γ-Secretase Modulators” (ACS Med Chem Lett, 2011).

Active and inactive are the calls of the source. No cut-off for these calls is given here.

Series [1] can be described thus: Selectivity ratio of IC50 for gamma secretase-mediated amyloid beta total production to IC50 for gamma secretase-mediated amyloid beta (1 to 42) production.
Series [2] deals with Rattus norvegicus. The series can be described thus: Antialzheimer activity in CD rat assessed as reduction in amyloid beta total CSF level at 30 mg/kg, po measured after 3 hrs. It counts as functional, organism-based. Set-up: dose 30 mg/kg.
For series [3], the system named is Rattus norvegicus. Nature of the series: Antialzheimer activity in CD rat assessed as reduction in amyloid beta (1 to 40) CSF level at 30 mg/kg, po measured after 3 hrs. The format is functional, organism-based. Set-up: dose 30 mg/kg.
A short description of series [4]: Inhibition of gamma secretase-mediated amyloid beta (1 to 42) production expressed in HEK293 cells overexpressing APP Swedish mutant after 5 hrs by immunoassay. It counts as cell-based.
A further series is filed under the species Mus musculus. Nature of the series: Inhibition of mouse gamma-secretase assessed as reduction in reduction in Hes-1 expression up to 20 uM.
A further series has as its system HEK293. Nature of the series: Inhibition of gamma-secretase expressed in HEK293 cells assessed as reduction in Notch cleavage up to 20 uM. The format is cell-based.
The species entered for another series is Canis lupus familiaris. The series can be described thus: Inhibition of dog gamma-secretase assessed as reduction in reduction in Hes-1 expression up to 20 uM.
Series [5] can be described thus: Drug uptake in CD rat brain at 30 mg/kg, po measured after 3 hrs. Particulars: read-out: Drug uptake. Set-up: dose 30 mg/kg, route oral. The format is ADME, organism-based.
Series [6] relates to Rattus norvegicus. Nature of the series: Antialzheimer activity in CD rat assessed as reduction in amyloid beta (1 to 42) CSF level at 30 mg/kg, po measured after 3 hrs. Set-up: scale not given: the % may be the effect or the level left. It counts as functional.
Series [7] can be described thus: Drug uptake in CD rat plasma at 30 mg/kg, po measured after 3 hrs. Set-up: dose 30 mg/kg, route oral. The format is ADME, organism-based.
The test system of series [8] is P-glycoprotein. The series can be described thus: Drug transport assessed as P-glycoprotein-mediated efflux ratio of compound transport from basolateral to apical side over apical to basolateral side. It counts as ADME. Particulars: not told.
Series [9] concerns P-glycoprotein. Nature of the series: Drug transport assessed as P-glycoprotein-mediated basolateral to apical permeability. Particulars: not told; read-out: permeability. It counts as ADME.
For series [10], the system named is P-glycoprotein. Nature of the series: Drug transport assessed as P-glycoprotein-mediated apical to basolateral permeability. It counts as ADME. Particulars: not told; read-out: permeability.

A word on the IC50: it is the concentration that inhibits the measured activity by half. As usually defined, the efflux ratio is the permeability from basolateral to apical divided by that in the opposite direction, in the common usage.

As for `COc1cc(-c2nnc3n(C(C)c4ccc(F)cc4)cccc2-3)ccc1-n1cnc(C)c1` (racemic), the Ratio IC50 in series [1] was 87. The inhibition result in the series on Rattus norvegicus [2], in the series on Rattus norvegicus [3], in the series filed under Mus musculus, with HEK293 and in the series filed under Canis lupus familiaris was “inactive” each time. This compound also returned an IC50 in [4] of 231 nM.

Turning to `COc1cc(-c2nnc3n([C@@H](C)c4ccc(F)c(F)c4)cc(Cl)cc2-3)ccc1-n1cnc(C)c1`, in [1], the Ratio IC50 came to 301. The inhibition entry in the series with Rattus norvegicus [2], in the series on Rattus norvegicus [3], in the series filed under Mus musculus, with HEK293 and in the series listed under Canis lupus familiaris was “inactive” each time. The concentration at 3 h in [5] worked out at 880 nM; in [7] it was 6510 nM. Moreover, the half-maximal inhibitory concentration (IC50) in series [4] is 66 nM. In addition, in the series on Rattus norvegicus [6], the Activity stood at 27%.

For `COc1ccc(Cn2cccc3c(-c4ccc(-n5cnc(C)c5)c(OC)c4)nnc2-3)cc1`, in [1], the Ratio IC50 was 119. In addition, the inhibition result with Rattus norvegicus [2], with Rattus norvegicus [3], in the series listed under Mus musculus, in the series on HEK293 and in the series filed under Canis lupus familiaris was “inactive” in each case. Moreover, the concentration for half-maximal inhibition (IC50) in series [4] stood at 168 nM.

With `COc1cc(-c2nnc3n([C@@H](C)c4ccc(F)cc4)cc(C#N)cc2-3)ccc1-n1cnc(C)c1`, in series [1], the Ratio IC50 is 60. Moreover, the inhibition result in the series on Rattus norvegicus [2], in the series on Rattus norvegicus [3], in the series listed under Mus musculus, in the series with HEK293 and in the series filed under Canis lupus familiaris was “inactive” throughout. Moreover, the half-inhibitory concentration (IC50) in series [4] came to 172 nM.

Regarding `CC[C@@H](c1ccc(F)cc1)n1cccc2c(-c3ccc(-n4cnc(C)c4)c(OC)c3)nnc1-2`, in series [1], the Ratio IC50 amounted to 42. Moreover, the inhibition result with Rattus norvegicus [2], with Rattus norvegicus [3], in the series filed under Mus musculus, in the series on HEK293 and in the series filed under Canis lupus familiaris was “inactive” throughout. In [4], the 50% inhibitory concentration (IC50) was determined as 140 nM.

Turning to `COc1cc(-c2nnc3n([C@@H](C)c4cc(F)ccc4F)cc(Cl)cc2-3)ccc1-n1cnc(C)c1`, in series [1], the Ratio IC50 was 151. The inhibition entry in the series with Rattus norvegicus [2], in the series with Rattus norvegicus [3], in the series filed under Mus musculus, with HEK293 and in the series listed under Canis lupus familiaris was “inactive” throughout. The concentration at 3 h came to 740 nM in [5] and 2520 nM in series [7]. The compound also gave a 50% inhibitory concentration (IC50) in series [4] of 71 nM. In the series with Rattus norvegicus [6], the Activity is reported as 24%.

As for `C=C(c1ccc(F)cc1)n1cc(Cl)cc2c(-c3ccc(-n4cnc(C)c4)c(OC)c3)nnc1-2`, the Ratio IC50 in [1] was 42. For the same compound, the inhibition result in the series on Rattus norvegicus [2], in the series on Rattus norvegicus [3], in the series listed under Mus musculus, in the series with HEK293 and in the series filed under Canis lupus familiaris was “inactive” in each case. The half-inhibitory concentration (IC50) in [4] was 481 nM.

In the case of `COc1ccc(COCc2cc3c(-c4ccc(-n5cnc(C)c5)c(OC)c4)nnc-3n([C@@H](C)c3ccc(F)cc3)c2)cc1`, in [1], the Ratio IC50 came out at 110. Also, the inhibition result in the series with Rattus norvegicus [2], with Rattus norvegicus [3], in the series listed under Mus musculus, in the series with HEK293 and in the series filed under Canis lupus familiaris was “inactive” in each case. The same compound yielded an IC50 in series [4] of 182 nM.

For `COc1cc(-c2nnc3n([C@@H](C)c4ccc(F)cc4)cc(CO)cc2-3)ccc1-n1cnc(C)c1`, the Ratio IC50 in series [1] amounted to 248. In addition, the inhibition entry in the series on Rattus norvegicus [2], with Rattus norvegicus [3], in the series filed under Mus musculus, with HEK293 and in the series listed under Canis lupus familiaris was “inactive” each time. The same compound came in with an IC50 in [4] of 81 nM.

In the case of `COc1cc(-c2nnc3n([C@H](C)c4ccc(F)cc4)cccc2-3)ccc1-n1cnc(C)c1`, in series [1], the Ratio IC50 worked out at 60. For the same compound, the inhibition entry with Rattus norvegicus [2], with Rattus norvegicus [3], in the series listed under Mus musculus, in the series on HEK293 and in the series filed under Canis lupus familiaris was “inactive” throughout. This compound yielded an IC50 in series [4] of 332 nM.

As for `COc1cc(-c2nnc3n([C@@H](C)c4ccc(F)cc4)cc(C(F)F)cc2-3)ccc1-n1cnc(C)c1`, in series [1], the Ratio IC50 came to 52. Besides, the inhibition result with Rattus norvegicus [2], with Rattus norvegicus [3], in the series listed under Mus musculus, in the series on HEK293 and in the series listed under Canis lupus familiaris was “inactive” each time. Also, in [4], half-maximal inhibition (IC50) required 123 nM. In addition, in the series with Rattus norvegicus [6], the result was inactive.

Consider `COc1cc(-c2nnc3n([C@@H](C)c4ccc(F)cc4)cc(CF)cc2-3)ccc1-n1cnc(C)c1`, for which the Ratio IC50 in series [1] stood at 32. Besides, the inhibition result with Rattus norvegicus [2], in the series on Rattus norvegicus [3], in the series filed under Mus musculus, in the series with HEK293 and in the series filed under Canis lupus familiaris was “inactive” each time. Further, the half-inhibitory concentration (IC50) in series [4] came out at 634 nM.

`COc1cc(-c2nnc3n([C@@H](C)c4cc(F)cc(F)c4)cc(Cl)cc2-3)ccc1-n1cnc(C)c1`: the Ratio IC50 in [1] was 6. Further, the inhibition result in the series on Rattus norvegicus [2], in the series on Rattus norvegicus [3], in the series filed under Mus musculus, in the series on HEK293 and in the series filed under Canis lupus familiaris was “inactive” each time. This compound also returned an IC50 in series [4] of 38 nM.

On to `COc1cc(-c2nnc3n([C@@H](CO)c4ccc(F)cc4)cc(Cl)cc2-3)ccc1-n1cnc(C)c1`, for which the Ratio IC50 in series [1] was determined as 119. In addition, the inhibition result with Rattus norvegicus [2], in the series with Rattus norvegicus [3], in the series filed under Mus musculus, with HEK293 and in the series filed under Canis lupus familiaris was “inactive” throughout. In addition, the concentration at 3 h in series [5] stood at 100 nM; in series [7] it was 2150 nM. Further, in [4], the IC50 turned out to be 168 nM. Besides, the outcome with Rattus norvegicus [6] was inactive.

For the compound `COc1cc(-c2nnc3n(C(CCS(C)(=O)=O)c4ccc(F)cc4)cc(Cl)cc2-3)ccc1-n1cnc(C)c1` (stereo not given), in series [1], the Ratio IC50 stood at 63. Besides, the inhibition entry in the series on Rattus norvegicus [2], in the series on Rattus norvegicus [3], in the series filed under Mus musculus, in the series on HEK293 and in the series filed under Canis lupus familiaris was “inactive” in each case. Further, the IC50 in series [4] turned out to be 316 nM.

On to `COc1cc(-c2nnc3n([C@@H](C)c4cc(F)c(F)c(F)c4)cc(Cl)cc2-3)ccc1-n1cnc(C)c1`, for which the Ratio IC50 in series [1] stood at 186. The inhibition result with Rattus norvegicus [2], in the series with Rattus norvegicus [3], in the series listed under Mus musculus, with HEK293 and in the series listed under Canis lupus familiaris was “inactive” in each case. The values for the concentration at 3 h in series [5] and in series [7] were 1220 nM and 5020 nM, respectively. In series [4], the concentration for half-maximal inhibition (IC50) is 107 nM. Further, the Activity in the series on Rattus norvegicus [6] turned out to be 45%.

Regarding `COc1cc(-c2nnc3n([C@@H](C)c4ccc(F)cc4)cc(Cl)cc2-3)ccc1-n1cnc(C)c1`, the Ratio IC50 in [1] is 288. Besides, the inhibition result in the series on Rattus norvegicus [2], in the series with Rattus norvegicus [3], in the series listed under Mus musculus, in the series with HEK293 and in the series filed under Canis lupus familiaris was “inactive” throughout. The figures for the concentration at 3 h in series [5] and in [7] were 920 nM and 2740 nM, respectively. Further, the IC50 in series [4] worked out at 70 nM. Besides, the Activity with Rattus norvegicus [6] is reported as 32%.

As to `COc1cc(-c2nnc3n([C@@H](C)c4ccc(F)cc4)cc(C)cc2-3)ccc1-n1cnc(C)c1`, the Ratio IC50 in series [1] was found to be 161. Moreover, the inhibition entry in the series on Rattus norvegicus [2], with Rattus norvegicus [3], in the series filed under Mus musculus, with HEK293 and in the series filed under Canis lupus familiaris was “inactive” in each case. Further, the efflux ratio with P-glycoprotein [8] stood at 8.5. Moreover, the IC50 in series [4] came out at 85 nM. Further, the outcome in the series on Rattus norvegicus [6] was inactive. Besides, the Papp B→A with P-glycoprotein [9] was 41.2 ×10⁻⁶ cm/s. For the same compound, the Papp A→B with P-glycoprotein [10] stood at 4.8 ×10⁻⁶ cm/s.

In the case of `COc1cc(-c2nnc3n([C@@H](C)c4ccc(F)cc4)cc(C(C)(F)F)cc2-3)ccc1-n1cnc(C)c1`, in series [1], the Ratio IC50 came to 66. Moreover, the inhibition result in the series on Rattus norvegicus [2], with Rattus norvegicus [3], in the series listed under Mus musculus, with HEK293 and in the series filed under Canis lupus familiaris was “inactive” each time. Besides, 143 nM corresponded to half-maximal inhibition in series [4] (IC50). Also, in the series on Rattus norvegicus [6], the result was inactive. Moreover, the concentration at 3 h in series [7] stood at 30 nM.

Turning to `CC[C@@H](c1cc(F)c(F)c(F)c1)n1cc(Cl)cc2c(-c3ccc(-n4cnc(C)c4)c(OC)c3)nnc1-2`, the Ratio IC50 in series [1] was determined as 463. The inhibition result with Rattus norvegicus [2], in the series on Rattus norvegicus [3], in the series filed under Mus musculus, with HEK293 and in the series filed under Canis lupus familiaris was “inactive” each time. Besides, the concentration at 3 h in [5] was 1610 nM; in series [7] it was 7230 nM. Also, the concentration for half-maximal inhibition (IC50) in [4] stood at 43 nM. Moreover, the Activity in the series on Rattus norvegicus [6] is 30%.
